Test results reported in ChEMBL document CHEMBL3779887, “Robenidine Analogues as Gram-Positive Antibacterial Agents” (J Med Chem, 2016).
In brackets after ≈: the same amount, converted by molar mass.

Key:
Type in all cases: functional
Staphylococcus aureus = assay: Antibacterial activity against methicillin-resistant Staphylococcus aureus after 20 to 24 hrs
Enterococcus = assay: Antibacterial activity against vancomycin-resistant Enterococcus after 20 to 24 hrs
Escherichia coli [1] = assay: Antibacterial activity against Escherichia coli ATCC 25922 after 20 to 24 hrs
Pseudomonas aeruginosa [2] = assay: Antibacterial activity against Pseudomonas aeruginosa ATCC 27853 after 20 to 24 hrs
Escherichia coli [3] = assay: Antibacterial activity against Escherichia coli ATCC 25922 after 20 to 24 hrs in presence of polymyxin B nonapeptide
Pseudomonas aeruginosa [4] = assay: Antibacterial activity against Pseudomonas aeruginosa ATCC 27853 after 20 to 24 hrs in presence of polymyxin B nonapeptide

Question: With `N=C(N/N=C/c1ccccc1Br)N/N=C/c1ccccc1Br` as the molecule, how does the MIC (Staphylococcus aureus) read?
Answer: Its MIC is > 400 µM.

Question: And the MIC (Enterococcus)?
Answer: Its MIC is > 400 µM.

Question: What about the MIC (Escherichia coli [1]) of the same molecule?
Answer: Its MIC is > 400 µM.

Question: And the MIC (Pseudomonas aeruginosa [2])?
Answer: Its MIC is > 400 µM.

Question: `CC(C)/N=c1\cc2n(-c3ccc(Cl)cc3)c3ccccc3nc-2cc1Nc1ccc(Cl)cc1` [CLOFAZIMINE] was tested. Which MIC90 (Escherichia coli [1]) did it give?
Answer: The MIC90 was > 250 µM.

Question: What about the MIC90 (Pseudomonas aeruginosa [2]) of the same molecule?
Answer: Its MIC90 is > 250 µM.

Question: And the MIC90 (Escherichia coli [3])?
Answer: The MIC90 was 4.2 µM.

Question: What about the MIC90 (Pseudomonas aeruginosa [4]) of the same molecule?
Answer: Its MIC90 is 8.4 µM.

Question: Which results are given for `N=C(N/N=C/c1cccc(F)c1)N/N=C/c1cccc(F)c1`?
Answer: MIC (Staphylococcus aureus): 47 µM (≈ 14.2 µg/mL); MIC (Enterococcus): 71 µM (≈ 21.4 µg/mL); MIC (Escherichia coli [1]): > 400 µM; MIC (Pseudomonas aeruginosa [2]): > 400 µM

Question: Which MIC (Staphylococcus aureus) does the source give for `Cc1cccc(/C=N/NC(=N)N/N=C/c2cccc(C)c2O)c1O` here?
Answer: The MIC was > 400 µM.

Question: What about the MIC (Enterococcus) of the same molecule?
Answer: The MIC was > 400 µM.

Question: What about the MIC (Escherichia coli [1]) of the same molecule?
Answer: Its MIC is > 400 µM.

Question: What about the MIC (Pseudomonas aeruginosa [2]) of the same molecule?
Answer: Its MIC is > 400 µM.

Question: With `N=C(N/N=C/c1ccc(SC(F)(F)F)cc1)N/N=C/c1ccc(SC(F)(F)F)cc1` as the molecule, how does the MIC (Staphylococcus aureus) read?
Answer: The MIC was 96 µM (≈ 44.7 µg/mL).

Question: And the MIC (Enterococcus)?
Answer: The MIC was 135 µM (≈ 62.8 µg/mL).

Question: What about the MIC (Escherichia coli [1]) of the same molecule?
Answer: The MIC was > 400 µM.

Question: And the MIC (Pseudomonas aeruginosa [2])?
Answer: The MIC was > 400 µM.

Question: With `N=C(N/N=C/c1cccc(O)c1)N/N=C/c1cccc(O)c1` as the molecule, how does the MIC (Staphylococcus aureus) read?
Answer: The MIC was 192 µM (≈ 57.1 µg/mL).

Question: What about the MIC (Enterococcus) of the same molecule?
Answer: Its MIC is 288 µM (≈ 85.6 µg/mL).

Question: What about the MIC (Escherichia coli [1]) of the same molecule?
Answer: The MIC was > 400 µM.

Question: What about the MIC (Pseudomonas aeruginosa [2]) of the same molecule?
Answer: Its MIC is > 400 µM.

Question: `N=C(N/N=C/c1ccc(OC(F)(F)F)cc1)N/N=C/c1ccc(OC(F)(F)F)cc1` was tested. Which MIC (Staphylococcus aureus) did it give?
Answer: The MIC was 187 µM (≈ 81 µg/mL).

Question: And the MIC (Enterococcus)?
Answer: The MIC was 85 µM (≈ 36.8 µg/mL).

Question: What about the MIC (Escherichia coli [1]) of the same molecule?
Answer: Its MIC is > 400 µM.

Question: What about the MIC (Pseudomonas aeruginosa [2]) of the same molecule?
Answer: Its MIC is > 400 µM.

Question: `C#Cc1ccc(/C=N/NC(=N)N/N=C/c2ccc(C#C)cc2)cc1` was tested. Which MIC (Staphylococcus aureus) did it give?
Answer: Its MIC is > 400 µM.

Question: What about the MIC (Enterococcus) of the same molecule?
Answer: The MIC was 17.2 µM (≈ 5.39 µg/mL).

Question: And the MIC (Escherichia coli [1])?
Answer: The MIC was > 400 µM.

Question: What about the MIC (Pseudomonas aeruginosa [2]) of the same molecule?
Answer: The MIC was > 400 µM.

Question: Which results are given for `N=C(N/N=C/c1ccc(O)c(O)c1)N/N=C/c1ccc(O)c(O)c1`?
Answer: MIC (Staphylococcus aureus): > 400 µM; MIC (Enterococcus): > 400 µM; MIC (Escherichia coli [1]): > 400 µM; MIC (Pseudomonas aeruginosa [2]): > 400 µM
